Legend:
[1] = tested on: kochia; test: Test C preemergence; type: in vivo, Bassia scoparia; conditions: 0 to 100 scale (0 no effect, 100 complete control)
In short: (§1)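 Soil-applied (pre) and foliar (post, 1–2 leaf, 2–10 cm) sprays; surfactant-containing non-phytotoxic solvent vehicle; loam/sand substrate. Readout: visual % control at 10 d, greenhouse, versus untreated.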

[2] = tested on: ryegrass, Italian; test: Test C postemergence; type: in vivo, Lolium multiflorum; conditions: 10 days
In short: as §1

[3] = tested on: barnyardgrass; test: Test C postemergence; type: in vivo, Echinochloa crusgalli; conditions: 10 days
In short: as §1

[4] = tested on: pigweed, palmer; test: Test C preemergence; type: in vivo, Amaranthus palmeri; conditions: 0 to 100 scale (0 no effect, 100 complete control)
In short: as §1

[5] = tested on: barnyardgrass; test: Test D flooded paddy test; type: in vivo, Echinochloa crus-galli; conditions: 250 g ai/ha, applied to paddy water, visual rating after 13 to 14 days, scale 0 to 100 (0 no effect, 100 complete control)
In short: (§2)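 Seedlings reached the 2-leaf stage, then pots were flooded to 3 cm over the soil surface. Compound was applied into the water, depth was maintained, and plants stayed in the greenhouse 13 to 14 days before visual scoring (0–100) relative to controls.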

[6] = tested on: green foxtail; test: Test C postemergence; type: in vivo, Setaria viridis; conditions: 10 days
In short: as §1

[7] = tested on: galium; test: Test C postemergence; type: in vivo, Galium aparine; conditions: 10 days
In short: as §1

[8] = tested on: sedge, umbrella; test: Test D flooded paddy test; type: in vivo, Cyperus difformis; conditions: 250 g ai/ha, applied to paddy water, visual rating after 13 to 14 days, scale 0 to 100 (0 no effect, 100 complete control)
In short: as §2

[9] = tested on: blackgrass; test: Test C postemergence; type: in vivo, Alopecurus myosuroides; conditions: 10 days
In short: as §1

[10] = tested on: ragweed; test: Test C postemergence; type: in vivo, Ambrosia artemisiifolia; conditions: 10 days
In short: as §1

[11] = tested on: oat, wild; test: Test C preemergence; type: in vivo, Avena fatua; conditions: 0 to 100 scale (0 no effect, 100 complete control)
In short: as §1

[12] = tested on: ragweed; test: Test C preemergence; type: in vivo, Ambrosia artemisiifolia; conditions: 0 to 100 scale (0 no effect, 100 complete control)
In short: as §1

[13] = tested on: kochia; test: Test C postemergence; type: in vivo, Bassia scoparia; conditions: 10 days
In short: as §1

[14] = tested on: barnyardgrass; test: Test C preemergence; type: in vivo, Echinochloa crusgalli; conditions: 0 to 100 scale (0 no effect, 100 complete control)
In short: as §1

[15] = tested on: horseweed; test: Test C postemergence; type: in vivo, Erigeron canadensis; conditions: 10 days
In short: as §1

[16] = tested on: pigweed, palmer; test: Test C postemergence; type: in vivo, Amaranthus palmeri; conditions: 10 days
In short: as §1

[17] = tested on: blackgrass; test: Test C preemergence; type: in vivo, Alopecurus myosuroides; conditions: 0 to 100 scale (0 no effect, 100 complete control)
In short: as §1

[18] = tested on: wheat; test: Test C postemergence; type: in vivo, Triticum aestivum; conditions: 10 days
In short: as §1

[19] = tested on: green foxtail; test: Test C preemergence; type: in vivo, Setaria viridis; conditions: 0 to 100 scale (0 no effect, 100 complete control)
In short: as §1

[20] = tested on: rice; test: Test D flooded paddy test; type: in vivo, Oryza sativa; conditions: 250 g ai/ha, applied to paddy water, visual rating after 13 to 14 days, scale 0 to 100 (0 no effect, 100 complete control)
In short: as §2

[21] = tested on: oat, wild; test: Test C postemergence; type: in vivo, Avena fatua; conditions: 10 days
In short: as §1

[22] = tested on: wheat; test: Test C preemergence; type: in vivo, Triticum aestivum; conditions: 0 to 100 scale (0 no effect, 100 complete control)
In short: as §1

[23] = tested on: soybean; test: Test C postemergence; type: in vivo, Glycine max; conditions: 10 days
In short: as §1

[24] = tested on: corn; test: Test C postemergence; type: in vivo, Zea mays; conditions: 10 days
In short: as §1

[25] = tested on: ryegrass, Italian; test: Test C preemergence; type: in vivo, Lolium multiflorum; conditions: 0 to 100 scale (0 no effect, 100 complete control)
In short: as §1

[26] = tested on: soybean; test: Test C preemergence; type: in vivo, Glycine max; conditions: 0 to 100 scale (0 no effect, 100 complete control)
In short: as §1

[27] = tested on: ducksalad; test: Test D flooded paddy test; type: in vivo, Heteranthera limosa; conditions: 250 g ai/ha, applied to paddy water, visual rating after 13 to 14 days, scale 0 to 100 (0 no effect, 100 complete control)
In short: as §2

[28] = tested on: corn; test: Test C preemergence; type: in vivo, Zea mays; conditions: 0 to 100 scale (0 no effect, 100 complete control)
In short: as §1

[29] = Preemergence, 500 g ai/ha, visual rating after 10 days
[30] = Test C, preemergence, 125 g ai/ha
[31] = 125 g ai/ha, postemergence, 0 to 100 scale, 0 no effect, 100 complete control
[32] = Postemergence, 500 g ai/ha, visual 0 to 100 scale (0 no effect, 100 complete control)

Cc1cccc2c1O[C@@H](C)CN2C(=O)c1cc(-n2cnc(C(C)C)n2)cc2ccoc12 [Compound 227]
70: Plant response rating, Barnyardgrass [3, 32] | Soybean plant response rating [26, 30]
80: Plant response rating, Foxtail, Green [6, 31] | Plant response rating, Blackgrass [9, 32] | Barnyardgrass plant response rating [14, 30] | Blackgrass plant response rating [17, 30] | Plant response rating, Corn [24, 32] | Plant response rating, Ducksalad (Flood) [27]
98: Plant response rating, Sedge, Umbrella (Flood) [8]
40: Plant response rating, Barnyardgrass [3, 31] | Plant response rating, Horseweed [15, 32]
10: Plant response rating, Ragweed [10, 31] | Plant response rating, Rice (Flood) [20]
0: Ragweed plant response rating [12, 30] | Wheat plant response rating [22, 30]
50: Plant response rating, Barnyardgrass (Flood) [5] | Plant response rating, Blackgrass [9, 31] | Plant response rating, Ragweed [10, 32] | Plant response rating, Ragweed [12, 29] | Corn plant response rating [28, 30]
30: Plant response rating, Oat, Wild [21, 31] | Plant response rating, Wheat [22, 29]
100: Plant response rating, Kochia [1, 29] | Plant response rating, Ryegrass, Italian [2, 32] | Plant response rating, Pigweed, Palmer [4, 29] | Plant response rating, Galium [7, 31] | Plant response rating, Galium [7, 32] | Plant response rating, Kochia [13, 32] | Plant response rating, Pigweed, Palmer [16, 31] | Plant response rating, Pigweed, Palmer [16, 32] | Plant response rating, Foxtail, Green [19, 29] | Foxtail, Green plant response rating [19, 30] | Plant response rating, Soybean [23, 31] | Plant response rating, Soybean [23, 32]
20: Plant response rating, Horseweed [15, 31] | Plant response rating, Wheat [18, 31] | Plant response rating, Corn [24, 31]
60: Plant response rating, Wheat [18, 32] | Plant response rating, Oat, Wild [21, 32] | Plant response rating, Corn [28, 29]
90: Kochia plant response rating [1, 30] | Plant response rating, Ryegrass, Italian [2, 31] | Pigweed, Palmer plant response rating [4, 30] | Plant response rating, Foxtail, Green [6, 32] | Plant response rating, Oat, Wild [11, 29] | Oat, Wild plant response rating [11, 30] | Plant response rating, Kochia [13, 31] | Plant response rating, Barnyardgrass [14, 29] | Plant response rating, Blackgrass [17, 29] | Plant response rating, Ryegrass, Italian [25, 29] | Ryegrass, Italian plant response rating [25, 30] | Plant response rating, Soybean [26, 29]

From patent US20260262643A1, “HERBICIDAL BENZOXAZINES” (FMC CORPORATION, priority 2022, published 2026)
